We go through 13 compounds from patent publication US20080213815A1, “DIAGNOSING BREAST CANCER BY SEPRASE LEVEL” (DUBLIN CITY UNIVERSITY, priority 2007, published 2008).

In general, pKi refers to the negative decadic logarithm of the Ki, by convention in mol/L. One may read the pIC50 as −log10 of the IC50, conventionally taken in molar units.

pIC50, pKi: −log10 of the molar value. Where two headings read alike, the source gives them in different places. Where a SMILES comes first, the peptide text is derived from it. The star is where a group is joined. AFC = O=c1cc(C(F)(F)F)c2ccc(N*)cc2o1

One experiment has as its target T1, Seprase (Homo sapiens, UniProt Q12884).
T1 sequence (Q12884 1-760): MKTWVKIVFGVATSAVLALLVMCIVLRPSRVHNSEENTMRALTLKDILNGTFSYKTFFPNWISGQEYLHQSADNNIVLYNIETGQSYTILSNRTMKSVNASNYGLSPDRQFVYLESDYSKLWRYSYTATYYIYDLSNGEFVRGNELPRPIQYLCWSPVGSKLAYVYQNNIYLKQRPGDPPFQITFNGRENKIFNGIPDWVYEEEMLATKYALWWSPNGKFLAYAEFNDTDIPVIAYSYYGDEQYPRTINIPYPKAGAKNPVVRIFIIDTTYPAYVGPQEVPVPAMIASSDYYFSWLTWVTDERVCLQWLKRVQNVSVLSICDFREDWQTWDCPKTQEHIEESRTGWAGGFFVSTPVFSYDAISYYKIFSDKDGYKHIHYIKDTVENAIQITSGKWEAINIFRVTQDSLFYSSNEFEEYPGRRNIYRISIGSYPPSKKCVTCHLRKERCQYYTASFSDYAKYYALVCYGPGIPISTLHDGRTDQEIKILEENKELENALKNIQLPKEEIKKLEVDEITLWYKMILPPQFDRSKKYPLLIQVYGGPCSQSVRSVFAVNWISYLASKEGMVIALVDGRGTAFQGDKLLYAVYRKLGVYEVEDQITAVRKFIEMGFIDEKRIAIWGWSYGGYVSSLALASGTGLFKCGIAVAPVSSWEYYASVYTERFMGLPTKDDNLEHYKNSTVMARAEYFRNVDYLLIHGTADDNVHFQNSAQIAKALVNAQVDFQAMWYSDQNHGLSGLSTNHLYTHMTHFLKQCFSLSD
The experiment can be described thus: Seprase activity towards fluorogenic substrates. Format: biochemical. As to conditions: compared with substrate Z-Gly-Pro-AMC. The source says: The substrate used for the test is Benzyloxycarbonyl (Z)-Gly-Pro-7-amino-4-methylcoumarin (AMC) [Z-Gly-Pro-AMC]. […] This substrate is for a completely different enzyme, namely DPPII.

The target in a further experiment is T2, Prolyl Oligopeptidase (Homo sapiens, UniProt P48147).
T2 sequence (P48147 1-710): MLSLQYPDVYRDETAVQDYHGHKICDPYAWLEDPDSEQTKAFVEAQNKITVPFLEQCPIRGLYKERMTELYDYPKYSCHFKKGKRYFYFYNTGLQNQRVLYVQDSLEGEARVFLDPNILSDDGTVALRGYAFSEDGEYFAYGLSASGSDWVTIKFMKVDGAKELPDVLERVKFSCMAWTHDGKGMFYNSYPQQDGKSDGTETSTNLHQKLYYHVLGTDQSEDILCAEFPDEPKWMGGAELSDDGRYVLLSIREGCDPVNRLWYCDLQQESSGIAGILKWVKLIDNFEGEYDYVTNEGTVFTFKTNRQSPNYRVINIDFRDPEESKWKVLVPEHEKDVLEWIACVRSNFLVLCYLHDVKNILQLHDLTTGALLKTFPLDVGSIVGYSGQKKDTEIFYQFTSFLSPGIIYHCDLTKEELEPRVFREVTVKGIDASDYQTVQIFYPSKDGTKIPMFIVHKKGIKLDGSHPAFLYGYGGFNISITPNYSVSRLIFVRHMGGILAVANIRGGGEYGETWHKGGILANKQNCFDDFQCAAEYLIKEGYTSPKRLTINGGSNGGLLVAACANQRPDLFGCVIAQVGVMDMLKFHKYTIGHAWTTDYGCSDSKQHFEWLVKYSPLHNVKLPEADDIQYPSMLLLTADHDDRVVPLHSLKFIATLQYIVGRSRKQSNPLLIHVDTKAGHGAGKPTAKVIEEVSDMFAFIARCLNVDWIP

Experiment [1] concerns the target T3, PO (Prolyl Oligopeptidase) (Homo sapiens, UniProt P48147).
T3 construct: from tissue; host or cells: serum
T3 sequence (P48147 1-710): T2 sequence (P48147 1-710)
The experiment can be described thus: Fluorimetric Z-Gly-Pro-AMC assay in serum with PO inhibitor. Type of experiment: biochemical. The note with it: JTP-4819 at a concentration of 4×10^−6M in the assay; 100 μM Z-Gly-Pro-AMC, 37° C. How it is done: A 25 μl aliquot of serum was pre-incubated for 15 minutes at 37° C. with 5 μl of 2.5×10^−4M JTP-4819 in 10% v/v MeOH in a 96 well microtitre plate prior to substrate addition. Next, 100 μl of 100μM Z-Gly-Pro-AMC substrate in 4% MeOH was added to the sample and the microtitre plate was incubated at 37° C. for 60 mins. Reactions were terminated by the addition of 170 μl of 1.5M acetic acid. Blanks or negative controls were prepared by adding 170 μl of 1.5M acetic acid to 25 μl of enzyme sample prior to substrate addition and incubation at 37° C. for 60 mins. The assay is performed in triplicate and at three different times. […] This concentration is obtained by adding 5 μl of 2.5×10^−4 M JTP-4819 to the assay.
Fluorimetric analysis of these samples was achieved using a Perkin Elmer LS50 Fluorescence Spectrophotometer at excitation and emission wavelengths of 370 nm and 440 nm respectively. Excitation slit widths were maintained at 10 nm while emission slit widths were adjusted accordingly for the range being analysed.
End point measurements were allowed, as the enzyme assay was linear with respect to time and enzyme concentration up to 60 mins. Fluorimetric intensities observed were converted to nanomoles AMC released per minute per ml using the appropriate standard curve. Enzyme units were defined as nanomoles of AMC released per minute at 37° C.

The mark [2] stands for this setting: Prolyl Oligopeptidase specific inhibitors, Table 5, Bacterial Inhibitor; cited from earlier work.
The mark [3] stands for this setting: Prolyl Oligopeptidase specific inhibitors, Table 5; read-out: Potency Ki; cited from earlier work.
[4] abbreviates: Prolyl Oligopeptidase specific inhibitors, Table 5; read-out: Potency IC50; cited from earlier work.

Consider `C[C@H](N)C(=O)N1CCC[C@H]1C(=O)Nc1ccc2c(C(F)(F)F)cc(=O)oc2c1` [Ala-Pro-7-amino-4-trifluoromethylcoumarin] (H-Ala-Pro-{AFC}), for which the “Seprase activity towards substrate” value at Seprase is listed as “markedly less activity”.
In the case of `CC(C)CC/C=C/C(=O)NC1CCCNC(=O)C(CC(C)C)NC(=O)C(=O)C(C)NC1=O` (stereo not drawn) [Eurystatin A], the “Potency IC50” value on Prolyl Oligopeptidase (setting [2]) is “IC50 = 0.004 μg/mL”.
For `CCC(C)CC/C=C/C(=O)NC1CCCNC(=O)C(CC(C)C)NC(=O)C(=O)C(C)NC1=O` (stereo not drawn) [Eurystatin B], on Prolyl Oligopeptidase (setting [2]), the “Potency IC50” value is on record as “IC50 = 0.002 μg/mL”.
For the compound `CC(NC(=O)OCC1c2ccccc2-c2ccccc21)C(=O)N1CCCC1C#N` (stereo not drawn) [Fmoc-Ala-Pro-CN], on Prolyl Oligopeptidase (setting [3]), the pKi is 8.30.
Consider `N#CC1CCCN1C(=O)C1CCCN1C(=O)OCC1c2ccccc2-c2ccccc21` (stereo not drawn) [Fmoc-Pro-Pro-CN], for which the pKi at Prolyl Oligopeptidase (setting [3]) is 8.30.
For the compound `O=C(CO)[C@@H]1CCCN1C(=O)[C@@H]1CCCN1C(=O)NCc1ccccc1` [JTP-4819], in experiment [1], the “PO sensitivity to inhibitor” value is given as “sensitive”. Moreover, the pIC50 at Prolyl Oligopeptidase (setting [4]) is 9.08. For the same compound, on Prolyl Oligopeptidase (setting [3]), the negative logarithm of the Ki (pKi) was 10.35.
As to `O=C[C@@H]1CCCN1C(=O)CCC(=O)NCc1ccc(Cl)cc1` [ONO-1603], at Prolyl Oligopeptidase (setting [4]), the pIC50 is 7.24.
Regarding `COc1cccc2c1C(=O)c1ccc3c(c1C2=O)C(=O)C[C@@H](C)[C@H]3O` [SNA-8073-B], the pKi on Prolyl Oligopeptidase (setting [3]) is 5.10.
As for `CN[C@@H]1C[C@H]2O[C@@](C)([C@@H]1OC)n1c3ccccc3c3c4c(c5c6ccccc6n2c5c31)C(=O)NC4` [Staurosporine], the pKi at Prolyl Oligopeptidase (read-out: Potency Ki; Prolyl Oligopeptidase specific inhibitors, Table 5; cited from earlier work) is 6.15.
In the case of `O=CC1CCCN1C(=O)C1Cc2ccccc2N1C(=O)OCc1ccccc1` (stereo not drawn) [Z-Indolinyl-Prolinal], the pKi at Prolyl Oligopeptidase (setting [3]) is 8.62.
On to `O=C(C1CCCN1C(=O)OCc1ccccc1)N1CCC(F)C1` (stereo not drawn) [Z-Pro-3-fluoropyrrolidine], for which the pKi on Prolyl Oligopeptidase (setting [3]) was 9.10.
For the compound Postatin, the “Potency IC50” value at Prolyl Oligopeptidase (setting [2]) was “IC50 = 0.03 μg/mL”.
With Propeptin, on Prolyl Oligopeptidase (setting [3]), the pKi was 6.15.
